Laboratory results taken from ChEMBL document CHEMBL1157642, “2-Amino-5-benzoyl-4-phenylthiazoles: Development of potent and selective adenosine A1 receptor antagonists” (Bioorg Med Chem, 2010).
Blank lines part the entries; values can stand above or below the molecule they belong to.

How the values were obtained:
[1] = molecular target: T1, Adenosine receptor A2b (Homo sapiens) (UniProt P29275); test: Antagonist activity at human adenosine A2B receptor; format: functional
T1 sequence (whole entry): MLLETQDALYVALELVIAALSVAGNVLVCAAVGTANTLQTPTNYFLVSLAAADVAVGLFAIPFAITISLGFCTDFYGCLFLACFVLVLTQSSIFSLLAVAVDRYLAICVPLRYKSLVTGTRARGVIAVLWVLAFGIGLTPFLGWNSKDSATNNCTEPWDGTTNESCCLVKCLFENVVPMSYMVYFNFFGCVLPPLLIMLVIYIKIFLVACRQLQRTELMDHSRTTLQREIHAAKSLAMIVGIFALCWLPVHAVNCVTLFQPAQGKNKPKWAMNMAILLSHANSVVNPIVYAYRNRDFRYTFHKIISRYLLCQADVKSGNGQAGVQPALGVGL

[2] = molecular target: T2, Adenosine receptor A1 (Homo sapiens, UniProt P30542); test: Binding affinity to human adenosine A1 receptor
T2 sequence (P30542 whole entry): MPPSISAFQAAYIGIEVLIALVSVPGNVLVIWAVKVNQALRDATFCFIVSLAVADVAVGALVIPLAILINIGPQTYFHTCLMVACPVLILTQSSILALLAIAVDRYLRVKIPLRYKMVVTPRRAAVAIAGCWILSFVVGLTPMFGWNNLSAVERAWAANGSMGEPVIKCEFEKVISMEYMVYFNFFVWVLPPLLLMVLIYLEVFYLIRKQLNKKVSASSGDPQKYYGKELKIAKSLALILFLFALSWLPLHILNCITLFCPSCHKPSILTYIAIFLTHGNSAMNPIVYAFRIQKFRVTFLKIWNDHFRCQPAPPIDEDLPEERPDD

[3] = molecular target: Adenosine receptor A2a (Homo sapiens, UniProt P29274)
Sequence of Adenosine receptor A2a (Homo sapiens, UniProt P29274) (P29274 whole entry): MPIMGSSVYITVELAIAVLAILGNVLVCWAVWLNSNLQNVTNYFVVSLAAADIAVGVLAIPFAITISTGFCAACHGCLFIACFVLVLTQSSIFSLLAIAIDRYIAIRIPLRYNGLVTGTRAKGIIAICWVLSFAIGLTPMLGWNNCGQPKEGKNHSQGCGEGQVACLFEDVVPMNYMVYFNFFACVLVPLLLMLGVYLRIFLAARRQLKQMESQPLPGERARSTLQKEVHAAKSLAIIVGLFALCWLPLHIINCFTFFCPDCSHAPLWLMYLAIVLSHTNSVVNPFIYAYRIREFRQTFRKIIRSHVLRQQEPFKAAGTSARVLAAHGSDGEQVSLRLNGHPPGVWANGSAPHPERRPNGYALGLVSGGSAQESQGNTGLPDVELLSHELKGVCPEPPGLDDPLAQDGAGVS

[4] = molecular target: T3, Adenosine receptor A3 (Rattus norvegicus, UniProt P28647)
T3 sequence (P28647 whole entry): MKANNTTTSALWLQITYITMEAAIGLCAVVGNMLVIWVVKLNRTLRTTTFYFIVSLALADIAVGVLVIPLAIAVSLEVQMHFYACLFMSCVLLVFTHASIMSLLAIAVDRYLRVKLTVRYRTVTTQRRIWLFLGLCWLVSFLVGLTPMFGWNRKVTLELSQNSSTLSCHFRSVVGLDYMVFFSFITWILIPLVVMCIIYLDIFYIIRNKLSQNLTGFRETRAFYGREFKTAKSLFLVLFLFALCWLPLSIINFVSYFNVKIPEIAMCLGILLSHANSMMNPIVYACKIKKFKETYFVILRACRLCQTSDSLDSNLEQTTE

[5] = molecular target: T4, Adenosine receptor A1 (Cavia porcellus, UniProt P47745); test: Binding affinity to guinea pig adenosine A1 receptor
T4 sequence (P47745 whole entry): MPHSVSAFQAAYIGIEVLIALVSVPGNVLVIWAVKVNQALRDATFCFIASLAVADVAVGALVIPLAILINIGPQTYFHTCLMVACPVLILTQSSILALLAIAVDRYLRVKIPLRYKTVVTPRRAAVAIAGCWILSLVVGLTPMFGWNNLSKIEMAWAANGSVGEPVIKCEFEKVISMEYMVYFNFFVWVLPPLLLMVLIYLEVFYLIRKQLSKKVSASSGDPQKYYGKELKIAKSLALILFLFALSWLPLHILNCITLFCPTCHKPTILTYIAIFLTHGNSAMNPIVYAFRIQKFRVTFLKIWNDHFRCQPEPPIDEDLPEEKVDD

[6] = molecular target: T5, Adenosine receptor A3 (Ovis aries, UniProt P35342); test: Binding affinity to sheep adenosine A3 receptor
T5 sequence (P35342 whole entry): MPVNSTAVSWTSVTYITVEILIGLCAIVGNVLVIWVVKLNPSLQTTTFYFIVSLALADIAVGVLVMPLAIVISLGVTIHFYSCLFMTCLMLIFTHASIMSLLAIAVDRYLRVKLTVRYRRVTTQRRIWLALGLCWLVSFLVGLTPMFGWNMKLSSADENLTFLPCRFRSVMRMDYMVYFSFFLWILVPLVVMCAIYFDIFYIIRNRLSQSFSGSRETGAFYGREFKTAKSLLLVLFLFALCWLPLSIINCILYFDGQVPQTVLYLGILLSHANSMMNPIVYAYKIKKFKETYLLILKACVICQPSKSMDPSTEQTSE

[7] = molecular target: Adenosine receptor A2a (Cavia porcellus, UniProt P46616); test: Binding affinity to guinea pig adenosine A2A receptor
Sequence of Adenosine receptor A2a (Cavia porcellus, UniProt P46616) (P46616 whole entry): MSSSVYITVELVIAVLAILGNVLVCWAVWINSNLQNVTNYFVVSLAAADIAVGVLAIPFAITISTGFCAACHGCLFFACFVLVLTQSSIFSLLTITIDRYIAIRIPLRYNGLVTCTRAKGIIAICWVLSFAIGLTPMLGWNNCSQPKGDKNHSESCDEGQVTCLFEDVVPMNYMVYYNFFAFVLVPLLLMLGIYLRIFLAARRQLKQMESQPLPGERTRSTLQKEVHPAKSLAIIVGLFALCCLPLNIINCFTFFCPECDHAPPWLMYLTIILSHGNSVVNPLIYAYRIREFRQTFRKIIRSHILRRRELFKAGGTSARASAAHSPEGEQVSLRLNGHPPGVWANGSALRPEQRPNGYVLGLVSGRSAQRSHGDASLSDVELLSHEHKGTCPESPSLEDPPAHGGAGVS

Kb [1]: 3.2 µM
Ki [2]: > 10 µM
Ki [3]: > 10 µM
Structure (SMILES): COc1cc(-c2nc(NC(C)=O)sc2-c2ccncc2)cc(OC)c1OC

Structure (SMILES): Cn1c(=O)c2[nH]cnc2n(C)c1=O [THEOPHYLLINE]
Ki [4]: 85 µM

Ki [5]: 0.375 µM
Ki [6]: 0.0414 µM
Ki [7]: 3.75 µM
Structure (SMILES): Cn1cnc2c(N[C@H]3C[C@H]4CC[C@@H]3C4)ncnc21
